{"source": "ChEMBL document CHEMBL5338818", "about": "“Discovery of the First Potent, Selective, and In Vivo Efficacious Polo-like Kinase 4 Proteolysis Targeting Chimera Degrader for the Treatment of TRIM37-Amplified Breast Cancer” (J Med Chem, 2023)", "key": {"[1]": {"assay": "Toxicity in nu/nu mouse xenografted with human MCF7 cells assessed as effect on liver at 20 mg/kg, ip administered once every other day for 21 days by HE staining based analysis", "assay_type": "organism-based", "conditions": "in vivo, 504 h, time 21 day"}, "[2]": {"target": "T1, Protein cereblon/Serine/threonine-protein kinase PLK4 (Homo sapiens, UniProt O00444+Q96SW2)", "assay": "Protac activity at CRBN/PLK4 in human MCF7 cells at 1 uM in presence of BAF by Western blot analysis", "assay_type": "cell-based"}, "MCF7 [3]": {"test_system": "MCF7", "assay": "Induction of apoptosis in human MCF7 cells at 0.3 to 3 uM incubated for 36 hrs by Annexin V-FITC//propidium iodide staining based flow cytometry analysis", "assay_type": "functional, cell-based", "conditions": "dose 0.3-3 µM"}, "[4]": {"target": "T2, Serine/threonine-protein kinase PLK4 (Homo sapiens) (UniProt O00444)", "T2 sequence (whole entry)": "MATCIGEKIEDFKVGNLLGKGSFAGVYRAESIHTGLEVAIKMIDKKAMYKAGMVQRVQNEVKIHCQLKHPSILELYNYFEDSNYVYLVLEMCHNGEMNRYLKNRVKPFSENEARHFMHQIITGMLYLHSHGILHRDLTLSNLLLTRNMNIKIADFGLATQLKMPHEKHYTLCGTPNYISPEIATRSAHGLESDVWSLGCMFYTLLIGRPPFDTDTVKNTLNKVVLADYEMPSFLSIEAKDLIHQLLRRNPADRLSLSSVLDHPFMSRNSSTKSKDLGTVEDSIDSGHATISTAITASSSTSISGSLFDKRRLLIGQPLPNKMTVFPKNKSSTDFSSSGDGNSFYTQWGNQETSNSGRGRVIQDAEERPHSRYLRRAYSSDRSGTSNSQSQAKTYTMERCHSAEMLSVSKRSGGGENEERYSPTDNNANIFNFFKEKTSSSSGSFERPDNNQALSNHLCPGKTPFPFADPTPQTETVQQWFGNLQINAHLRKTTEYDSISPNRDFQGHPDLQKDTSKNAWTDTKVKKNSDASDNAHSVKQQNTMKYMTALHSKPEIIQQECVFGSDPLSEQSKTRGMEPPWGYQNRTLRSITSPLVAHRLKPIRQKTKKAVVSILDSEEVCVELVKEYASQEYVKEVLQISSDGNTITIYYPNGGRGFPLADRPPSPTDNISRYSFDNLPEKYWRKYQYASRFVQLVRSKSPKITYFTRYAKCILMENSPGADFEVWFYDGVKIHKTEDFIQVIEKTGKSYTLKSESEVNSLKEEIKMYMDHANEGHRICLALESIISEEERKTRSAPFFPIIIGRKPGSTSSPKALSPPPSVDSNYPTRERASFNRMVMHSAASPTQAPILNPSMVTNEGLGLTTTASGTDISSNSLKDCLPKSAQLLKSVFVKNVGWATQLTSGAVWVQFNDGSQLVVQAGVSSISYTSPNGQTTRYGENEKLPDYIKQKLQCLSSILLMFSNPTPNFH", "assay": "Inhibition of PLK4 in human MCF7 cells assessed as increase in SAS-6 degradation by Western blot analysis", "assay_type": "cell-based", "conditions": "dose 1-1000 nM"}, "[5]": {"assay": "Stability in human plasma assessed as compound remaining at 100 uM after 30 mins by LC-MS/MS analysis (reference value: 100%)", "assay_type": "ADME, cell-free", "conditions": "read-out: Stability"}, "[6]": {"target": "T1, Protein cereblon/Serine/threonine-protein kinase PLK4", "assay": "Protac activity at CRBN/PLK4 in human MCF7 cells by Western blot analysis", "assay_type": "cell-based"}, "MCF7 [7]": {"test_system": "MCF7", "assay": "Induction of cell senescence in human MCF7 cells assessed by increase SA-beta-Gal positive cells at 2 uM measured after 48 hrs", "assay_type": "functional, cell-based"}, "[8]": {"target": "T1, Protein cereblon/Serine/threonine-protein kinase PLK4", "assay": "Protac activity at CRBN/PLK4 in human MCF7 cells at 1 uM incubated for 48 hrs by Western blot analysis", "assay_type": "cell-based"}, "[9]": {"assay": "Observed AUC infinity in ICR mouse at 20 mg/kg, ip measured upto 24 hrs by LC-M/MS analysis", "assay_type": "ADME, organism-based", "parameters": "dose 20 mg/kg, time < 24 hrs, route ip", "conditions": "in vivo"}, "[10]": {"assay": "Toxicity in nu/nu mouse xenografted with human MCF7 cells assessed as effect on lungs at 20 mg/kg, ip administered once every other day for 21 days by HE staining based analysis", "assay_type": "organism-based", "conditions": "in vivo, 504 h, time 21 day"}, "[11]": {"assay": "Metabolic stability in rat liver microsomes assessed as intrinsic clearance at 100 uM incubated for 60 mins in presence of NADPH by LC-MS/MS analysis", "assay_type": "ADME, Microsome", "conditions": "read-out: CLH"}, "[12]": {"assay": "Observed mean […] time infinity in ICR mouse at 20 mg/kg, ip measured upto 24 hrs by LC-M/MS analysis", "assay_type": "ADME, organism-based", "conditions": "in vivo"}, "MCF7 [13]": {"test_system": "MCF7", "assay": "Antitumor activity against human MCF7 cells xenografted in nu/nu mouse assessed as induction of apoptosis at 20 mg/kg, ip measured once every other day for 21 days by TUNEL assay", "assay_type": "functional, organism-based", "conditions": "time 21.0 day"}, "[14]": {"target": "T1, Protein cereblon/Serine/threonine-protein kinase PLK4", "assay": "Protac activity at CRBN/PLK4 in human MCF7 cells at 10 uM incubated for 48 hrs by Western blot analysis", "assay_type": "cell-based"}, "MCF7 [15]": {"test_system": "MCF7", "assay": "Antitumor activity against human MCF7 cells xenografted in nu/nu mouse assessed as reduction in Ki-67 at 20 mg/kg,ip administered once every other day for 21 days by immunohistochemical analysis", "assay_type": "functional, organism-based", "conditions": "time 21.0 day"}, "[16]": {"assay": "Cmax in ICR mouse at 20 mg/kg, ip measured upto 24 hrs by LC-M/MS analysis", "assay_type": "ADME, organism-based", "parameters": "dose 20 mg/kg, time < 24 hrs, route ip", "conditions": "in vivo"}, "CYP2C19": {"target": "CYP2C19 (Homo sapiens, UniProt P33261)", "sequence (P33261 whole entry)": "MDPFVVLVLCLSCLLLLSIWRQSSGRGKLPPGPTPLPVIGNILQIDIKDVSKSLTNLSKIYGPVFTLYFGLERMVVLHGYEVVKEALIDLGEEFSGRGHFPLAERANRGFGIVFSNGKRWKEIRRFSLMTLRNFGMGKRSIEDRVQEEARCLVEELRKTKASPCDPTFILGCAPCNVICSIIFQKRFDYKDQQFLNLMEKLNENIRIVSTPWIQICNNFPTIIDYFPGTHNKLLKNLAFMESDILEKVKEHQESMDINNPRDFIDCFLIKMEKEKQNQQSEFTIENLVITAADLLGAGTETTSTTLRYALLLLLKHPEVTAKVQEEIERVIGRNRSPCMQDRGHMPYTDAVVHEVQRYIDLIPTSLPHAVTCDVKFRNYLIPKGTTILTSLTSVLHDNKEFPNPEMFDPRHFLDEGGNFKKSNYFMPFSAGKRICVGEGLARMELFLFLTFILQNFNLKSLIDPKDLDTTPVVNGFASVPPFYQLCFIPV", "assay": "Inhibition of CYP2C19 in human liver microsomes at 10 uM using (+)-3-benzylnirvanol as substrate preincubated for 10 mins followed by NADPH regenerating system addition and measured after 15 mins by LC-MS/MS analysis relative to control", "assay_type": "ADME, Microsome", "conditions": "probe (+)-3-benzylnirvanol (named as substrate in the text), time 25 min"}, "[17]": {"assay": "Observed clearance in ICR mouse at 2 mg/kg, iv measured upto 24 hrs by LC-M/MS analysis", "assay_type": "ADME, organism-based", "conditions": "in vivo"}, "[18]": {"assay": "AUClast in ICR mouse at 20 mg/kg, ip measured upto 24 hrs by LC-M/MS analysis", "assay_type": "ADME, organism-based", "parameters": "dose 20 mg/kg, time < 24 hrs, route ip", "conditions": "in vivo"}, "[19]": {"target": "T3, Serine/threonine-protein kinase PLK4 (Homo sapiens, UniProt O00444)", "T3 sequence (O00444 whole entry)": "T2 sequence (whole entry)", "assay": "Inhibition of PLK4 (unknown origin) incubated for 1 hr in presence of kinase tracer 236 by FRET assay"}, "MCF7 [20]": {"test_system": "MCF7", "assay": "Antiproliferative activity against human MCF7 cells incubated for 5 days by CCK-8 assay", "conditions": "MCF7, 120 h"}, "[21]": {"assay": "Metabolic stability in human liver microsomes assessed as compound remaining at 100 uM incubated for 60 mins in presence of NADPH by LC-MS/MS analysis", "assay_type": "ADME, Microsome", "conditions": "read-out: Stability"}, "[22]": {"target": "T1, Protein cereblon/Serine/threonine-protein kinase PLK4", "assay": "Protac activity at CRBN/PLK4 in human MCF7 cells at 0.1 uM incubated for 48 hrs by Western blot analysis", "assay_type": "cell-based"}, "[23]": {"assay": "Tmax in ICR mouse at 20 mg/kg, ip measured upto 24 hrs by LC-M/MS analysis", "assay_type": "ADME, organism-based", "conditions": "in vivo"}, "CYP2C9": {"target": "CYP2C9 (Homo sapiens, UniProt P11712)", "sequence (P11712 whole entry)": "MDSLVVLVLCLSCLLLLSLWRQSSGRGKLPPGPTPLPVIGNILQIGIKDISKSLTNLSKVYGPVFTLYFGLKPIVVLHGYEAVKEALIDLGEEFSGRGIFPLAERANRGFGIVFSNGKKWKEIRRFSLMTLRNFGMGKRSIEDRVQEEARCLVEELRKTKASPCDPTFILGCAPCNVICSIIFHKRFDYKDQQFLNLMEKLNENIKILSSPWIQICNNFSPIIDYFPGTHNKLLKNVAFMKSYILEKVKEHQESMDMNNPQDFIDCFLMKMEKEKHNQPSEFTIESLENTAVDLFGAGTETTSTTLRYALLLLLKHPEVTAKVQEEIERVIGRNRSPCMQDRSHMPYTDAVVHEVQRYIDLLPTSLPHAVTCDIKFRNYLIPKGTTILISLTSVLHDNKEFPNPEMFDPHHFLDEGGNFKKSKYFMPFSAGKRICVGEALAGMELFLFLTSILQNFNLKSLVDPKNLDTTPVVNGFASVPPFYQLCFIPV", "assay": "Inhibition of CYP2C9 in human liver microsomes at 10 uM using sulfaphenazole as substrate preincubated for 10 mins followed by NADPH regenerating system addition and measured after 15 mins by LC-MS/MS analysis relative to control", "assay_type": "ADME, Microsome", "conditions": "time 25 min"}, "[24]": {"assay": "Observed volume of distribution at steady state in ICR mouse at 2 mg/kg, iv measured upto 24 hrs by LC-M/MS analysis", "assay_type": "ADME, organism-based", "conditions": "in vivo, read-out: Vdss"}}, "note": "Active and inactive are the calls of the source. The rule behind the calls is not given here."}
{"smiles": "Cc1cc(Nc2nc(NCc3ccc(F)cc3F)nc3c2cnn3C2CCN(C(=O)C3CCN(c4ccc5c(c4)C(=O)N(C4CCC(=O)NC4=O)C5=O)CC3)CC2)n[nH]1", "note": "(stereo unspecified)", "values": [{"measurement": "Activity", "setting": "[1]", "value": "Non-Toxic"}, {"measurement": "Activity", "setting": "[2]", "value": "inactive"}, {"measurement": "Activity", "setting": "MCF7 [3]", "value": "Dose-Dependent Effect"}, {"measurement": "inhibition", "setting": "[4]", "value": "Dose-Dependent Effect"}, {"measurement": "remaining at 0.5 h, 100 µM", "setting": "[5]", "value": 96.6, "unit": "%"}, {"measurement": "DC50", "setting": "[6]", "value": 19.5, "unit": "nM"}, {"measurement": "Activity", "setting": "MCF7 [7]", "value": "Active"}, {"measurement": "Activity", "setting": "[8]", "value": 73.4, "unit": "%"}, {"measurement": "AUC(0-inf)", "setting": "[9]", "value": 14200, "unit": "ng·h/mL"}, {"measurement": "Activity", "setting": "[10]", "value": "Non-Toxic"}, {"measurement": "microsomal CLint at 100 µM", "setting": "[11]", "value": 20.9, "unit": "µL/min/mg"}, {"measurement": "Time", "setting": "[12]", "value": 3.93, "unit": "h"}, {"measurement": "inhibition", "setting": "MCF7 [13]", "value": "Active"}, {"measurement": "Activity", "setting": "[14]", "value": 83.5, "unit": "%"}, {"measurement": "inhibition", "setting": "MCF7 [15]", "value": "Active"}, {"measurement": "Cmax", "setting": "[16]", "value": 4570, "unit": "ng/mL"}, {"measurement": "inhibition at 0.25 h, 10 µM", "setting": "CYP2C19", "value": 23.4, "unit": "%"}, {"measurement": "clearance", "setting": "[17]", "value": 34.9, "unit": "mL/min/kg"}, {"measurement": "AUC(0-t) at 24 h", "setting": "[18]", "value": 14000, "unit": "ng·h/mL"}, {"measurement": "IC50", "setting": "[19]", "value": 8.4, "unit": "nM"}, {"measurement": "IC50", "setting": "MCF7 [20]", "value": 73, "unit": "nM"}, {"measurement": "remaining at 1 h, 100 µM", "setting": "[21]", "value": 51.7, "unit": "%"}, {"measurement": "Activity", "setting": "[22]", "value": 68.3, "unit": "%"}, {"measurement": "Tmax", "setting": "[23]", "value": 1.42, "unit": "h"}, {"measurement": "inhibition at 0.25 h, 10 µM", "setting": "CYP2C9", "value": 32.5, "unit": "%"}, {"measurement": "Vd", "setting": "[24]", "value": 16.3, "unit": "L/kg"}]}
